Publication PMC12808100, “The non-catalytic DNA polymerase ε subunit is an NPF motif recognition protein” (Nature Communications, 2025)
Residues, ends and D or L forms follow the SMILES beside them.

Tests used:
[1] = biological target: T1, HA-POLE2 (Homo sapiens, UniProt P56282); assay: Titration nHU, Western blot, HA-POLE2 in 293T cell extract; assay type: binding; settings: HA-tagged POLE2, range over assays, authors' rebuttal; read-out: dissociation constant
T1 construct: POLE2: UniProt ID P56282, residues 1-527; expressed in transfected cells; host or cells: HEK293T
T1 sequence (P56282 whole entry, the tested form may be a part): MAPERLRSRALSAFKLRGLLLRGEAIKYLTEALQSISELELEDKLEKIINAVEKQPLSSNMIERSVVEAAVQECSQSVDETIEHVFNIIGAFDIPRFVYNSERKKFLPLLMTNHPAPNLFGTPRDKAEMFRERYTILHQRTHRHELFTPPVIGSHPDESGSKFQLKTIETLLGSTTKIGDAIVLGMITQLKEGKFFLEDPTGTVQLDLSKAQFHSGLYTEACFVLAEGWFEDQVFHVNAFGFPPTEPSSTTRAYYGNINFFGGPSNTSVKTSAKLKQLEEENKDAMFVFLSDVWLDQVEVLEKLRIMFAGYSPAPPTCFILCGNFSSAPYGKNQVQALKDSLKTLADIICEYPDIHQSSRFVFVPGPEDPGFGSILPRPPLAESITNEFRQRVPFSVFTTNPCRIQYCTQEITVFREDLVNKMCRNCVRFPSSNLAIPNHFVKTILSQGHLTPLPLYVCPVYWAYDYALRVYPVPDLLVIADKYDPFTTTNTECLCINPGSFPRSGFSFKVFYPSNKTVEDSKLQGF
Description: (§1) To identify the partners of NPF motifs, we used the native holdup (nHU) assay that was recently developed by our team (Fig. 1B). The holdup approach has been extensively used to determine equilibrium dissociation constants of transient interactions mediated by PDZ and SH3 domains, 14-3-3, and human papilloma virus E6 proteins, and even nucleic acid-protein interactions[7],[30]–[35]. In the nHU experiments, a purified bait molecule, or a control compound, is immobilized on a resin at high concentration (typically 10 μM, or higher) and these resin stocks are subsequently mixed with dilute cell extracts. […] This liquid phase contains the unbound prey molecules at near binding equilibrium that can be quantified using selective and quantitative analytical approaches, such as mass spectrometry. Therefore, proteins that interact with the bait molecule will appear to be depleted in the solvent phase and by measuring its relative concentration compared to the control nHU experiment, the degree of binding (θ) can be determined that can be converted to apparent steady-state dissociation constants, according to:1 θ=1−Ifree/Itot=Cbait/Cbait+Kapp where Itot and Ifree are the measured total and bait-depleted equilibrium mass spectrometry total ion intensities of prey proteins, Cbait is the bait molecule concentration and Kapp is the apparent dissociation constant. […]

[2] = biological target: T2, HA-MBP-POLE2 (Homo sapiens, UniProt P56282); assay: Titration nHU, Western blot, HA-MBP-POLE2 in 293T cell extract; assay type: binding; settings: MBP-tagged POLE2, depending on the experimental setup, authors' rebuttal; read-out: dissociation constants
T2 construct: POLE2: UniProt ID P56282, residues 1-527; expressed in transfected cells; host or cells: HEK293T
T2 sequence (P56282 whole entry, the tested form may be a part): as above
Description: as §1

[3] = biological target: T3, EPS15 (Homo sapiens, UniProt P42566); assay: Titration nHU, Western blot, endogenous EPS15 in Jurkat extract; assay type: binding; settings: source data of Fig 5, titration nHU, unit inferred
T3 construct: endogenous in cells; host or cells: Jurkat E6.1
T3 sequence (P42566 1-896): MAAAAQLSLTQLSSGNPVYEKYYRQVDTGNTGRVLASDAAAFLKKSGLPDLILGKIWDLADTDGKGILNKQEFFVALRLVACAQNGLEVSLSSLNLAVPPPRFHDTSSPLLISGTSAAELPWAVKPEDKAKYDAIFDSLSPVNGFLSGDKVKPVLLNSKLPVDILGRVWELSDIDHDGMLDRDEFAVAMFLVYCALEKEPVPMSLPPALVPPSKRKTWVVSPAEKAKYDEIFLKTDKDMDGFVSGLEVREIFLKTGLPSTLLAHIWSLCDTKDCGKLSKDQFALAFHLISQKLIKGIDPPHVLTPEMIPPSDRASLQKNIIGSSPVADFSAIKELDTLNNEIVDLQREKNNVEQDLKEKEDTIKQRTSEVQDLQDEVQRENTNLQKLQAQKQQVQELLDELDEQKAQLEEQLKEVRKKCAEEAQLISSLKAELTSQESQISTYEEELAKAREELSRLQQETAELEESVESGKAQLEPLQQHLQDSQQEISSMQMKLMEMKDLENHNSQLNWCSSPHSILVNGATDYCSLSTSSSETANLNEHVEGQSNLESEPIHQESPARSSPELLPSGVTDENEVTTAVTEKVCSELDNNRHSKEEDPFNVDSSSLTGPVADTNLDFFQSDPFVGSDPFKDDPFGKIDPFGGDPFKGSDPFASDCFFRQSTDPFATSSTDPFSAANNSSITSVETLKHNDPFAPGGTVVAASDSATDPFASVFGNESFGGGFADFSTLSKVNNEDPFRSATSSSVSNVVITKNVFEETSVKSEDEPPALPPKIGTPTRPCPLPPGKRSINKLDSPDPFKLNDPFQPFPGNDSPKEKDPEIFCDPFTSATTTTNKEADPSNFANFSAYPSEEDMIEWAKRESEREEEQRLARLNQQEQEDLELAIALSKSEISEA
Description: To identify the partners of NPF motifs, we used the native holdup (nHU) assay that was recently developed by our team (Fig. 1B). The holdup approach has been extensively used to determine equilibrium dissociation constants of transient interactions mediated by PDZ and SH3 domains, 14-3-3, and human papilloma virus E6 proteins, and even nucleic acid-protein interactions[7],[30]–[35]. In the nHU experiments, a purified bait molecule, or a control compound, is immobilized on a resin at high concentration (typically 10 μM, or higher) and these resin stocks are subsequently mixed with dilute cell extracts. After a relatively long incubation, i.e., 2 h at 4 °C, the liquid phase is separated by centrifugation. This liquid phase contains the unbound prey molecules at near binding equilibrium that can be quantified using selective and quantitative analytical approaches, such as mass spectrometry. Therefore, proteins that interact with the bait molecule will appear to be depleted in the solvent phase and by measuring its relative concentration compared to the control nHU experiment, the degree of binding (θ) can be determined that can be converted to apparent steady-state dissociation constants, according to:1 θ=1−Ifree/Itot=Cbait/Cbait+Kapp where Itot and Ifree are the measured total and bait-depleted equilibrium mass spectrometry total ion intensities of prey proteins, Cbait is the bait molecule concentration and Kapp is the apparent dissociation constant.
Jurkat E6.1 cells (ECACC #88042803, RRID: CVCL_0367) were grown in RPMI (Gibco) medium completed with 10% FBS (Gibco BRL) and 40 μg/ml gentamicin (Gibco/Life Technology). To prepare total cell extracts, Jurkat cells were seeded onto T-175 flasks and grew until 3 × 10^6 cells/ml confluency. Cells were collected by 1000 g x 5 min centrifugation, washed with PBS and then lysed in ice-cold lysis buffer (Hepes-KOH pH 7.5 50 mM, NaCl 150 mM, Triton X-100 1%, cOmplete EDTA-free protease inhibitor cocktail 5x, TCEP 5 mM, glycerol 10%).
Cell suspensions were sonicated 4×20 sec with 1 sec long pulse on ice, then incubated rotating at 4 °C for 30 min. The lysates were centrifuged at 12,000 rpm 4 °C for 20 min and supernatant was kept. Total protein concentration was measured by standard Bradford method (Bio-Rad Protein Assay Dye Reagent #5000006) using a BSA calibration curve (MP Biomedicals #160069, diluted in lysis buffer) on a Bio-Rad SmartSpec 3000 spectrophotometer instrument.
Titration holdup experiments were carried out as described above using 25 μl saturated resins prepared. Briefly, we mixed control, or bait-saturated resins at various proportions by keeping the total resin amount and resin-analyte ratio constant during the experiment (for 25 μl we used 100 μl cell extract as analyte). In titration experiments with protein baits, bait concentration was determined as described above for the saturated resin stocks. Experiments were carried out at 4 °C for 2 h and recovered supernatants were subjected to western blot or dot blot analysis.
For Western blot, samples were mixed with 4x Laemmli Sample Buffer in 3:1 ratio. Equal amounts of samples were loaded on 6-10% acrylamide-gels (generally 16 μg). Transfer was done into PVDF membranes using a Trans-Blot Turbo Transfer System and Trans-Blot Turbo RTA Transfer Kit (BioRad, #1704275). For Dot blot, nHU samples were directly loaded on Nitrocellulose membranes using 48 Sample vacuum manifold (Cleaver Scientific) following the manufacturer’s recommendations. […]

[4] = biological target: RFT1 (Homo sapiens, UniProt Q96AA3); assay: nHU-MS peptide bait, prey RFT1
Sequence of RFT1 (Q96AA3 whole entry): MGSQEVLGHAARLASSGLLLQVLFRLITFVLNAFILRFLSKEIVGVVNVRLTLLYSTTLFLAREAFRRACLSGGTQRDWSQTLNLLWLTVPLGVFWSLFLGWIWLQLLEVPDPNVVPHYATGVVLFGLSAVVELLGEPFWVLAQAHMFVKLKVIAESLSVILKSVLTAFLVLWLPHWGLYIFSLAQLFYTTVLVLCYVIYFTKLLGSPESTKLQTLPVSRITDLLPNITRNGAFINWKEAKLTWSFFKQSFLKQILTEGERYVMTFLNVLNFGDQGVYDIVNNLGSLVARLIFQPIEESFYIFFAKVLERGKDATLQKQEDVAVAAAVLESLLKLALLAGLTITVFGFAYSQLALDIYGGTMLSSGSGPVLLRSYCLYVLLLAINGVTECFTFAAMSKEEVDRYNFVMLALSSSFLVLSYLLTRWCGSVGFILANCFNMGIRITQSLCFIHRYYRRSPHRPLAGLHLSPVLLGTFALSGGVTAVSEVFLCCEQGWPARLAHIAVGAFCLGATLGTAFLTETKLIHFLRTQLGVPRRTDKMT

[5] = biological target: DDX18 (Homo sapiens, UniProt Q9NVP1); assay: nHU-MS peptide bait, prey DDX18
Sequence of DDX18 (Q9NVP1 whole entry): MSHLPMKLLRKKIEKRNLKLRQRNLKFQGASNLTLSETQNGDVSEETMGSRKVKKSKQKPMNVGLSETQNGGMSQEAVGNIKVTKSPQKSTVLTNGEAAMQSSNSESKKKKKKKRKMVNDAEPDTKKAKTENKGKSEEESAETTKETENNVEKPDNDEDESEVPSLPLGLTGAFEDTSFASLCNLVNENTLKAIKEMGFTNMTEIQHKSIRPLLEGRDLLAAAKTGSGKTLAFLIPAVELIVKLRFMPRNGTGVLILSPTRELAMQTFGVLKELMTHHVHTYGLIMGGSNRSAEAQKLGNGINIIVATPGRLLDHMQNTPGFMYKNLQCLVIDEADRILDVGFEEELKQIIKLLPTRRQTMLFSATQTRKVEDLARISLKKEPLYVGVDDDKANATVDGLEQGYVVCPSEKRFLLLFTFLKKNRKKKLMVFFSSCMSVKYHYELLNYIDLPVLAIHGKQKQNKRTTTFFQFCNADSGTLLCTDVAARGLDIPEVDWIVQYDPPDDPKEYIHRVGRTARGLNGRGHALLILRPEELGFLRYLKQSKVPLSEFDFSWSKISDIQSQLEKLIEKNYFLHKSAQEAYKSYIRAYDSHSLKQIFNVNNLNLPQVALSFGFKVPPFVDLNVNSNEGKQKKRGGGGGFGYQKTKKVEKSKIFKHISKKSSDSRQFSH

[6] = biological target: CD2AP (Homo sapiens, UniProt Q9Y5K6); assay: nHU-MS peptide bait, prey CD2AP
Sequence of CD2AP (Q9Y5K6 whole entry): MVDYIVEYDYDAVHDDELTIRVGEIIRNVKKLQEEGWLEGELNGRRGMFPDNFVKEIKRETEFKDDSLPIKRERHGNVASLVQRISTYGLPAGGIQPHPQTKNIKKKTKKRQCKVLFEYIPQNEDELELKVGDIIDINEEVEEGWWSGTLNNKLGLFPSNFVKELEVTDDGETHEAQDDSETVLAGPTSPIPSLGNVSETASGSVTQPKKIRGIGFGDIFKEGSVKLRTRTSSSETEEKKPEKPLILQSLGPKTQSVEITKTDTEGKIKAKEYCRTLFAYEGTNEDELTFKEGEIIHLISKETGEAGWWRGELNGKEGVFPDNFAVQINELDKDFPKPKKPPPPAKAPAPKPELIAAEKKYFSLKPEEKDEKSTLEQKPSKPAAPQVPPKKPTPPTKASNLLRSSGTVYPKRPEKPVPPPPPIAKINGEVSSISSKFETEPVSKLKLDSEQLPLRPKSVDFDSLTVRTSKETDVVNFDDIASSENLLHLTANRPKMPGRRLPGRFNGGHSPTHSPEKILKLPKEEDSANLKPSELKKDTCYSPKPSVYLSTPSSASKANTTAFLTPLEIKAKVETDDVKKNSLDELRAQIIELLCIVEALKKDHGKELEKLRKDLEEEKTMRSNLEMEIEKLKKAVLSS

[7] = biological target: HP1BP3 (Homo sapiens, UniProt Q5SSJ5); assay: nHU-MS peptide bait, prey HP1BP3
Sequence of HP1BP3 (Q5SSJ5 whole entry): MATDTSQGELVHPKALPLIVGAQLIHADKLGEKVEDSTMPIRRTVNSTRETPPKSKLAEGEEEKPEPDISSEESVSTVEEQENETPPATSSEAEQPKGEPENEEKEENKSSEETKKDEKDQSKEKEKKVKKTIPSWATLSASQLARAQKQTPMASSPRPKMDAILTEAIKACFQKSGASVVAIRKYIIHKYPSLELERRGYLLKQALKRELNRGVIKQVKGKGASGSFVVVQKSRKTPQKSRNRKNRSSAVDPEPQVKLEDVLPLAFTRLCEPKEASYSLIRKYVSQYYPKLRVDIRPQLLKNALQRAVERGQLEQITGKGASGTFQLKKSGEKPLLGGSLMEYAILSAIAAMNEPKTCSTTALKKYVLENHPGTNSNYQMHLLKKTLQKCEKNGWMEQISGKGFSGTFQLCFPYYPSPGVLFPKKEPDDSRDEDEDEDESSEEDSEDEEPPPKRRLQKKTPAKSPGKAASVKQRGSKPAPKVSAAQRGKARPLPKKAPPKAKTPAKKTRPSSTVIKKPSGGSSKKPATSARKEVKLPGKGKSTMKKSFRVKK

[8] = biological target: GTPBP4 (Homo sapiens, UniProt Q9BZE4); assay: nHU-MS peptide bait, prey GTPBP4

In the case of CC(C)C[C@H](NC(=O)[C@H](CCCNC(=N)N)NC(=O)[C@H](C)NC(=O)[C@H](Cc1ccccc1)NC(=O)[C@@H]1CCCN1C(=O)[C@H](CC(N)=O)NC(=O)[C@H](CCCNC(=N)N)NC(=O)[C@H](CCCNC(=N)N)NC(=O)[C@H](C)NC(=O)[C@H](C)NC(=O)[C@H](C)NC(=O)[C@@H]1CCCN1C(=O)CN)C(=O)N[C@@H](CC(=O)O)C(=O)N[C@@H](CC(N)=O)C(=O)N[C@@H](CCCNC(=N)N)C(=O)N1CCC[C@H]1C(=O)N[C@@H](CCCNC(=N)N)C(N)=O [DONSON_71-88] (H-GPAAARRNPFARLDNRPR-NH2), the Kd [1] is reported as 0.3 to 0.5 µM, the Kd [2] is reported as 1 to 10 µM and the Kd [3] is reported as greater than 60 µM. It also gave a Kd [4] of 24.2 µM, a BI ([4]; prey RFT1, MS7_Varjosalo) of 0.292 and a Kd [5] of 29.5 µM. It also gave a BI ([5]; prey DDX18, MS2_Varjosalo) of 0.2529, a Kd [6] of 18.8 µM and a BI ([6]; prey CD2AP, MS7_Varjosalo) of 0.3476. It also gave a Kd [7] of 31.2 µM, a BI ([7]; prey HP1BP3, MS2_Varjosalo) of 0.2425 and a Kd [8] of 29.7 µM. The BI ([8]; prey GTPBP4, MS2_Varjosalo) was 0.252.
